Results on 21 compounds are retold here after patent publication US6683181B2, “Pyrroloquinolones as antiviral agents” (Pharmacia and Upjohn Comapny, priority 2000, dated 2004).

One data set addresses T1, CMV Polymerase (Human cytomegalovirus, UniProt P08546).
T1 construct: made in house; host or cells: recombinant baculovirus-infected SF-9 cells
The data set is described as follows: HCMV polymerase scintillation proximity assay (modified version). In kind it is biochemical. Particulars: modified SPA assay; compounds diluted in 100% DMSO; 4.5 mM DTT. The method, then: (§1) The HCMV polymerase assay is performed using a scintillation proximity assay (SPA) as described in several references, such as N. D. Cook, et al., Pharmaceutical Manufacturing International, pages 49-53 (1992); K. Takeuchi, Laboratory Practice, September issue (1992); U.S. Pat. No. 4,568,649 (1986); which are incorporated by reference herein. Reactions are performed in 96-well plates. The assay is conducted in 100 μl volume with 5.4 mM HEPES (pH 7.5), 11.7 mM KCl, 4.5 mM MgCl2, 0.36 mg/ml BSA, and 90 nM ^3H-dTTP. Assays are run with and without CHAPS, (3-[(3-Cholamidopropyl)-dimethylammonio]-1-propane-sulfonate) at a final concentration of 2 mM. HCMV polymerase is diluted in enzyme dilution buffer containing 50% glycerol, 250 mM NaCl, 10 mM HEPES (pH 7.5), 100 μg/ml BSA, and 0.01% sodium azide. The HCMV polymerase, which is expressed in recombinant baculovirus-infected SF-9 cells and purified according to literature procedures, is added at 10% (or 10 μl) of the final reaction volume, i.e., 100 μl. Compounds are diluted in 50% DMSO and 10 μl are added to each well. Control wells contain an equivalent concentration of DMSO. Unless noted otherwise, reactions are initiated via the addition of 6 nM biotinylated poly(dA)-oligo(dT) template/primer to reaction mixtures containing the enzyme, substrate, and compounds of interest. Plates are incubated in a 25° C. or 37° C. H2O bath and terminated via the addition of 40 μl/reaction of 0.5 M EDTA (pH 8) per well. Reactions are terminated within the time-frame during which substrate incorporation is linear and varied depending upon the enzyme and conditions used, i.e., 30 min. for HCMV polymerase. Ten μl of streptavidin-SPA beads (20 mg/ml in PBS/10% glycerol) are added following termination of the reaction. Plates are incubated 10 min. at 37° C., then equilibrated to room temperature, and counted on a Packard Topcount. Linear regressions are performed and IC50's are calculated using computer software.
A modified version of the above HCMV polymerase assay is performed as described above, but with the following changes: Compounds are diluted in 100% DMSO until final dilution into assay buffer. In the previous assay, compounds are diluted in 50% DMSO. 4.5 mM dithiotherotol (DTT) is added to the polymerase buffer.
For orientation: SPA uses beads or plates that emit light when radiolabelled molecules are held near them.

In the next data set the target is HSV Polymerase (Human herpesvirus 1, UniProt P04293). As to the kind of experiment: HSV polymerase assay. The class given is biochemical. The procedure:
[Worded in the source for another target; used here, by the source, with some conditions changed.] as §1, with “software. […]” for “software.”

The next data set deals with VZV Polymerase (Varicella-zoster virus, UniProt P09252). The data set is described as follows: VZV polymerase assay. The class given is biochemical. The procedure:
[Worded in the source for another target; used here, by the source, with some conditions changed.] as §1, with “software. […]” for “software.”

HSV Polymerase, sequence (P04293 whole entry): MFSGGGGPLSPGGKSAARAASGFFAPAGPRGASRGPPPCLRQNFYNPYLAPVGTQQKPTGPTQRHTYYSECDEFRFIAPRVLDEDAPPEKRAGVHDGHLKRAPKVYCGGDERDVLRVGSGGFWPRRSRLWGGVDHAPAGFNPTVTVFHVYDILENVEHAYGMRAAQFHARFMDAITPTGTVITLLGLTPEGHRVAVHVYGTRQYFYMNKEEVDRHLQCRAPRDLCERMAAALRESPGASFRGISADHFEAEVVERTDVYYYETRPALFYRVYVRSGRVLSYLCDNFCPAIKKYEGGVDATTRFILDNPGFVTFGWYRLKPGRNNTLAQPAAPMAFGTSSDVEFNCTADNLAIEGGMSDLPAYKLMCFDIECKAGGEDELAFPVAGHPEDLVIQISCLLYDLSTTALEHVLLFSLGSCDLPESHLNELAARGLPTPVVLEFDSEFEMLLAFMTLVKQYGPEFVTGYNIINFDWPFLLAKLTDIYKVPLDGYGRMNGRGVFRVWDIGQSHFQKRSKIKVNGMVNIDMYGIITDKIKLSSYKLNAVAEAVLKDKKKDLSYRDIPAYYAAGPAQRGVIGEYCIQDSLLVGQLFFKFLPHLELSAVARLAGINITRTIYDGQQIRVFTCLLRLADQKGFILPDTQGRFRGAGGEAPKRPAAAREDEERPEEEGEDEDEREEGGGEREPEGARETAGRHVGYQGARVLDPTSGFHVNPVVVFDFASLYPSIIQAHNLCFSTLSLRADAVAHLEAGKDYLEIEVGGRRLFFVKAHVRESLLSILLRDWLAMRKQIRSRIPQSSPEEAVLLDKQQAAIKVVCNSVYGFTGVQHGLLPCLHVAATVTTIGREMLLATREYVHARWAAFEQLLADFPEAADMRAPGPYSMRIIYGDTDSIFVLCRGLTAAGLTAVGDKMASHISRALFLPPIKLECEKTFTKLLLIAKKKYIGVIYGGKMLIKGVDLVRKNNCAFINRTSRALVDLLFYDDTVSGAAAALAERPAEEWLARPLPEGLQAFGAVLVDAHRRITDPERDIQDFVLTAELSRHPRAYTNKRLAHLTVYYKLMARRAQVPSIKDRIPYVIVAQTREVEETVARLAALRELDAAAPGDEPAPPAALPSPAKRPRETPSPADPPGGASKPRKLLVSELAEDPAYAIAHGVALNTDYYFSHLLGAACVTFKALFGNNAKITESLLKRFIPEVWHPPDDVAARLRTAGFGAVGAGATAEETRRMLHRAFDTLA
T1 sequence (P08546 whole entry): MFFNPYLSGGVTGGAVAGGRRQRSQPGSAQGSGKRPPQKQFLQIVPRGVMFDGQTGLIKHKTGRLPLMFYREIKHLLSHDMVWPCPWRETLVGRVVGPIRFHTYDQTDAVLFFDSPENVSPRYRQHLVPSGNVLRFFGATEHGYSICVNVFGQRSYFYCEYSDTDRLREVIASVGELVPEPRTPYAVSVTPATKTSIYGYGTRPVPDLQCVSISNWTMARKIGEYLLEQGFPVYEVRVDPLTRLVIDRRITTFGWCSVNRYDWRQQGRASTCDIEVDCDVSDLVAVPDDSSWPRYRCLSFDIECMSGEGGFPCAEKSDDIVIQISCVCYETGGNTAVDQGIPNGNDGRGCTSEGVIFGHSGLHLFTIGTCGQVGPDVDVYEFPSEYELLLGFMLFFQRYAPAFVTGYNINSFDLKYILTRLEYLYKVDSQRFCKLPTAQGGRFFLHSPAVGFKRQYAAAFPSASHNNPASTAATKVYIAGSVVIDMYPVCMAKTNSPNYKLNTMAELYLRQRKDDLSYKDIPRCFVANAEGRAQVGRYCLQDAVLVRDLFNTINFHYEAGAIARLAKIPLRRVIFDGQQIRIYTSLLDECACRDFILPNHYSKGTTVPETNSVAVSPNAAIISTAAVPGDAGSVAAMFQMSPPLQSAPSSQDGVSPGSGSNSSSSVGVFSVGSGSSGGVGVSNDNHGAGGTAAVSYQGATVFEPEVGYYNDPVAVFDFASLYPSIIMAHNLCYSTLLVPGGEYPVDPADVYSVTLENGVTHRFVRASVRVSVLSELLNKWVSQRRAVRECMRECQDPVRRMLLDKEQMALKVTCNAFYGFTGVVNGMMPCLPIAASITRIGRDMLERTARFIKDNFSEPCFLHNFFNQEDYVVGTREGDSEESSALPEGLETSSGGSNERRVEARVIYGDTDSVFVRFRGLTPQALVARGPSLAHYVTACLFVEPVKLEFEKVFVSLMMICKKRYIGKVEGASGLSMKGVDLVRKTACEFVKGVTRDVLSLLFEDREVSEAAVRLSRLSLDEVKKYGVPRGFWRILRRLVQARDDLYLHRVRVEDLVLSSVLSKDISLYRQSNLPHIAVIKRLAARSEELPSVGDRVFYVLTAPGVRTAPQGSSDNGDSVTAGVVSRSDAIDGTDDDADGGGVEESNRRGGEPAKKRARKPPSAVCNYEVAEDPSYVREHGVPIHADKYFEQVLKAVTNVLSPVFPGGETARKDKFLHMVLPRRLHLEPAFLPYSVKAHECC
VZV Polymerase, sequence (P09252 whole entry): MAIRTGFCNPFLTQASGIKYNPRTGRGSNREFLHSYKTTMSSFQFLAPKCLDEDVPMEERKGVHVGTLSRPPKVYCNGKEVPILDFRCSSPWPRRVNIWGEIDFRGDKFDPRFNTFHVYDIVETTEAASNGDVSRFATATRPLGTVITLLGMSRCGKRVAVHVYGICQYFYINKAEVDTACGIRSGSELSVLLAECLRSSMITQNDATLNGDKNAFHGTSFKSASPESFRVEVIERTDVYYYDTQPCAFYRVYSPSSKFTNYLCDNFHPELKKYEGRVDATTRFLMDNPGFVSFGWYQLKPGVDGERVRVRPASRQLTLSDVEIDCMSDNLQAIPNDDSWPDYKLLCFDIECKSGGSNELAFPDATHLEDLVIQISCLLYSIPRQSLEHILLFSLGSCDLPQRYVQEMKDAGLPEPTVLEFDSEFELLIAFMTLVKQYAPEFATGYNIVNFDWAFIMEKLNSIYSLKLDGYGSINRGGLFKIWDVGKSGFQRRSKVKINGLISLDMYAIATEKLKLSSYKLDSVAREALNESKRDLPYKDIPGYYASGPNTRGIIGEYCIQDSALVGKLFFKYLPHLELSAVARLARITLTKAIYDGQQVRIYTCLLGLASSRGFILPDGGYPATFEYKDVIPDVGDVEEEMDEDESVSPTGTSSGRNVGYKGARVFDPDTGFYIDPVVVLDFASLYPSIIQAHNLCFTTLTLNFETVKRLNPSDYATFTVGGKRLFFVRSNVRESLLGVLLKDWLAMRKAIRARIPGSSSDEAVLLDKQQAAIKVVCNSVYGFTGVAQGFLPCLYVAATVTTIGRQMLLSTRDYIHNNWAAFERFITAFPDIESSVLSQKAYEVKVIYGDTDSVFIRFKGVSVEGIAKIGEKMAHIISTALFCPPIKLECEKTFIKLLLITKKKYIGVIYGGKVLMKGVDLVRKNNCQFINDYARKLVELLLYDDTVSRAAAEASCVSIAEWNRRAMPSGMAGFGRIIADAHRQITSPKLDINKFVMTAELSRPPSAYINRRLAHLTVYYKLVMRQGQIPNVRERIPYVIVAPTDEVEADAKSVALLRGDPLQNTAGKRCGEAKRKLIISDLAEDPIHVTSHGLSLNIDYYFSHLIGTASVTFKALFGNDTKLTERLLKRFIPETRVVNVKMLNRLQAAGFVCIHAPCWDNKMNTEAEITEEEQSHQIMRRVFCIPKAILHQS

One may read the IC50 as the point on the concentration scale where inhibition reaches its midpoint. Read a low IC50 as greater potency. Broadly, the melting point is the temperature, or range, at which the solid turns liquid. As for `O=C(NCc1ccc(Cl)cc1)c1cn2c(CO)cc3cccc(c1=O)c32` [Example 1, N-(4-Chlorobenzyl)-2-(hydroxymethyl)-6-oxo-6H-pyrrolo[3,2,1-ij]quinoline-5-carboxamide], the melting point lay within 211 to 213 °C. Further, 1200 nM corresponded to half-maximal inhibition against CMV Polymerase (IC50).

Regarding `O=C(NCc1ccc(Cl)cc1)c1cn2c(CO)cc3cc(CC4CCOCC4)cc(c1=O)c32` [Example 2, N-(4-Chlorobenzyl)-2-(hydroxymethyl)-6-oxo-8-(tetrahydro-2H-pyran-4-ylmethyl)-6H-pyrrolo[3,2,1-ij]quinoline-5-carboxamide], the melting point was 196 to 198 °C. For the same compound, the midpoint of inhibition against CMV Polymerase, the IC50, lay at 210 nM. The compound further gave an IC50 on HSV Polymerase of 200 nM. This compound displayed an IC50 against VZV Polymerase of 160 nM.

`O=C(NCc1ccc(Cl)cc1)c1cn2c(CO)cc3cc(CN4CCOCC4)cc(c1=O)c32` [Example 3, N-(4-Chlorobenzyl)-2-(hydroxymethyl)-8-(4-morpholinylmethyl)-6-oxo-6H-pyrrolo[3,2,1-ij]quinoline-5-carboxamide] registered a melting point of 210 to 212 °C. For the same compound, at CMV Polymerase, the IC50 was 530 nM. This compound also gave an IC50 against HSV Polymerase of 510 nM. At VZV Polymerase, this compound showed an IC50 of 250 nM.

For `CCN(CC)CCc1cc2cc(CN3CCOCC3)cc3c(=O)c(C(=O)NCc4ccc(Cl)cc4)cn1c23` [Example 6, N-(4-Chlorobenzyl)-2-[2-(diethylamino)ethyl]-8-(4-morpholinylmethyl)-6-oxo-6H-pyrrolo[3,2,1-ij]quinoline-5-carboxamide], on CMV Polymerase, it took 2430 nM to reach half-maximal inhibition (IC50).

`CN1CCN(CCc2cc3cc(CN4CCOCC4)cc4c(=O)c(C(=O)NCc5ccc(Cl)cc5)cn2c34)CC1` [Example 7, N-(4-Chlorobenzyl)-2-[2-(4-methylpiperazin-1-yl)ethyl]-8-(morpholin-4-ylmethyl)-6-oxo-6H-pyrrolo[3,2,1-ij]quinoline-5-carboxamide] yielded an IC50 at CMV Polymerase of 1760 nM.

As to `CCC1CCCCN1CCc1cc2cc(CN3CCOCC3)cc3c(=O)c(C(=O)NCc4ccc(Cl)cc4)cn1c23` (stereo not shown) [Example 8, N-(4-Chlorobenzyl)-2-[2-(2-ethylpiperidin-1-yl)ethyl]-8-(morpholin-4-ylmethyl)-6-oxo-6H-pyrrolo[3,2,1-ij]quinoline-5-carboxamide], the IC50 against CMV Polymerase was 1920 nM.

As for `CN1CCN(CCCc2cc3cc(CN4CCOCC4)cc4c(=O)c(C(=O)NCc5ccc(Cl)cc5)cn2c34)CC1` [Example 9, N-(4-Chlorobenzyl)-2-[3-(4-methylpiperazin-1-yl)propyl]-8-(morpholin-4-ylmethyl)-6-oxo-6H-pyrrolo[3,2,1-ij]quinoline-5-carboxamide], 3440 nM corresponded to half-maximal inhibition against CMV Polymerase (IC50).

Take `O=C(NCc1ccc(Cl)cc1)c1cn2c(CCN3CCCCC3)cc3cc(CN4CCOCC4)cc(c1=O)c32` [Example 10, N-(4-Chlorobenzyl)-8-(morpholin-4-ylmethyl)-6-oxo-2-(2-piperidin-1-ylethyl)-6H-pyrrolo[3,2,1-ij]quinoline-5-carboxamide]: the IC50 against CMV Polymerase was 2300 nM.

As for `O=C(NCc1ccc(Cl)cc1)c1cn2c(CCCN3CCOCC3)cc3cc(CN4CCOCC4)cc(c1=O)c32` [Example 11, N-(4-Chlorobenzyl)-8-(morpholin-4-ylmethyl)-2-(3-morpholin-4-ylpropyl)-6-oxo-6H-pyrrolo[3,2,1-ij]quinoline-5-carboxamide], the IC50 at CMV Polymerase is 3570 nM. This IC50 lies about 1.6-fold higher than the previous one.

Compound `O=C(NCc1ccc(Cl)cc1)c1cn2c(CN3CCS(=O)(=O)CC3)cc3cc(CN4CCOCC4)cc(c1=O)c32` [Example 12, N-(4-Chlorobenzyl)-2-[(1,1-dioxido-4-thiomorpholinyl)methyl]-8-(4-morpholinylmethyl)-6-oxo-6H-pyrrolo[3,2,1-ij]quinoline-5-carboxamide] came in with a melting point of 236 to 239 °C. Moreover, at CMV Polymerase, the IC50 came out at 360 nM.

With `O=C(NCc1ccc(Cl)cc1)c1cn2c(CN3CCS(=O)(=O)CC3)c(I)c3cc(CN4CCOCC4)cc(c1=O)c32` [Example 13, N-(4-Chlorobenzyl)-2-[(1,1-dioxido-4-thiomorpholinyl)methyl]-1-iodo-8-(4-morpholinylmethyl)-6-oxo-6H-pyrrolo[3,2,1-ij]quinoline-5-carboxamide], the melting point fell in the range of 244 to 246 °C. The compound further returned an IC50 on CMV Polymerase of 840 nM.

The compound `O=C(NCc1ccc(Cl)cc1)c1cn2c(CCCO)cc3cc(CN4CCOCC4)cc(c1=O)c32` [Example 14, N-(4-Chlorobenzyl)-2-(3-hydroxypropyl)-8-(4-morpholinylmethyl)-6-oxo-6H-pyrrolo[3,2,1-ij]quinoline-5-carboxamide] yielded a melting point of 171 to 174 °C. In addition, the IC50 on CMV Polymerase was found to be 320 nM.

Compound `NC(=O)NCc1cc2cc(CN3CCOCC3)cc3c(=O)c(C(=O)NCc4ccc(Cl)cc4)cn1c23` [Example 15, 2-{[(Aminocarbonyl)amino]methyl}-N-(4-chlorobenzyl)-8-(4-morpholinylmethyl)-6-oxo-6H-pyrrolo[3,2,1-ij]quinoline-5-carboxamide] gave a melting point of 250 to 252 °C. On CMV Polymerase, this compound showed an IC50 of 410 nM.

`C[C@@H](O)c1cc2cc(CN3CCOCC3)cc3c(=O)c(C(=O)NCc4ccc(Cl)cc4)cn1c23` [Example 16, N-(4-Chlorobenzyl)-2-[(IR)-1-hydroxyethyl]-8-(4-morpholinylmethyl)-6-oxo-6H-pyrrolo[3,2,1-ij]quinoline-5-carboxamide] displayed a melting point of 155 to 159 °C. At CMV Polymerase, half-maximal inhibition (IC50) required 260 nM.

Compound `COCc1cc2cc(CN3CCOCC3)cc3c(=O)c(C(=O)NCc4ccc(Cl)cc4)cn1c23` [Example 17, N-(4-Chlorobenzyl)-2-(methoxymethyl)-8-(4-morpholinylmethyl)-6-oxo-6H-pyrrolo[3,2,1-ij]quinoline-5-carboxamide] yielded a melting point of 157 to 159 °C. Moreover, the midpoint of inhibition on CMV Polymerase, the IC50, lay at 540 nM.

`CCSCc1cc2cc(CN3CCOCC3)cc3c(=O)c(C(=O)NCc4ccc(Cl)cc4)cn1c23` [Example 18, N-(4-Chlorobenzyl)-2-[(ethylsulfanyl)methyl]-8-(4-morpholinylmethyl)-6-oxo-6H-pyrrolo[3,2,1-ij]quinoline-5-carboxamide] yielded a melting point of 177 to 178 °C. The compound further came in with an IC50 against CMV Polymerase of 580 nM.

Compound `O=C(NCc1ccc(Cl)cc1)c1cn2c(CSc3ccccc3)cc3cc(CN4CCOCC4)cc(c1=O)c32` [Example 19, N-(4-Chlorobenzyl)-8-(4-morpholinylmethyl)-6-oxo-2-[(phenylsulfanyl)methyl]-6H-pyrrolo[3,2,1-ij]quinoline-5-carboxamide] gave a melting point of 173 to 175 °C. Moreover, the IC50 at CMV Polymerase came out at 680 nM.

Consider `CNCc1cc2cc(CN3CCOCC3)cc3c(=O)c(C(=O)NCc4ccc(Cl)cc4)cn1c23` [Example 20, N-(4-Chlorobenzyl)-2-[(methylamino)methyl]-8-(4-morpholinylmethyl)-6-oxo-6H-pyrrolo[3,2,1-ij]quinoline-5-carboxamide], for which 490 nM corresponded to half-maximal inhibition on CMV Polymerase (IC50).

`CN(C)Cc1cc2cc(CN3CCOCC3)cc3c(=O)c(C(=O)NCc4ccc(Cl)cc4)cn1c23` [Example 21, N-(4-Chlorobenzyl)-2-[(dimethylamino)methyl]-8-(4-morpholinylmethyl)-6-oxo-6H-pyrrolo[3,2,1-ij]quinoline-5-carboxamide]: inhibition against CMV Polymerase was half-maximal at 620 nM (IC50).

As to `O=C(NCc1ccc(Cl)cc1)c1cn2c(CCO)cc3cccc(c1=O)c32` [Example 22, N-(4-Chlorobenzyl)-2-(2-hydroxyethyl)-6-oxo-6H-pyrrolo[3,2,1-ij]quinoline-5-carboxamide], the melting point fell in the range of 190 to 192 °C. For the same compound, the IC50 against CMV Polymerase came out at 1200 nM.

Compound `O=C(NCc1ccc(Cl)cc1)c1cn2c(CCO)cc3cc(CC4CCOCC4)cc(c1=O)c32` [Example 23, N-(4-Chlorobenzyl)-2-(2-hydroxyethyl)-6-oxo-8-(tetrahydro-2H-pyran-4-ylmethyl)-6H-pyrrolo[3,2,1-ij]quinoline-5-carboxamide] showed a melting point of 204 to 206 °C. The compound also had an IC50 on CMV Polymerase of 130 nM. At HSV Polymerase, this compound displayed an IC50 of 140 nM. At VZV Polymerase, the IC50 is 100 nM.
